# Source: patent US9493468B2, “Antifungal 5,6-dihydro-4H-pyrrolo[1,2-a][1,4]benzo-diazepines and 6H-pyrrolo[1,2-a][1,4]benzodiazepines substituted with heterocyclic derivatives” (Janssen Pharmaceutica NV, priority 2011, dated 2016)
# Tests used:
# Format in all cases: cell-based
# Microsporum canis = assay: Antifungal activity in vitro, resazurin growth inhibition: Microsporum canis (B68128)
# How it was run: (§1)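 Dermatophytes incubated at 27° C. for one week or more with compound, max 64 μM, in RPMI-1640/MOPS pH 7.0±0.1, 10^3 cfu/well. Viability by resazurin-to-resorufin fluorescence, 550/590 nm.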
# [1] = system: Trichophyton mentagrophytes; assay: Antifungal activity in vitro, resazurin growth inhibition: Trichophyton mentagrophytes (B70554)
# How it was run: as §1
# Trichophyton rubrum = assay: Antifungal activity in vitro, resazurin growth inhibition: Trichophyton rubrum (B68183)
# How it was run: as §1
# Scedosporium apiospermum = assay: Antifungal activity in vitro, resazurin growth inhibition: Scedosporium apiospermum (IHEM3817)
# How it was run: (§2)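 Fungi (10^3 cfu/well) grown in RPMI-1640 with L-glutamine, 2% glucose, MOPS pH 7.0, against 2- or 4-fold compound dilutions up to 64 μM. Dermatophytes incubated one week or more at 27° C. Growth inhibition read fluorimetrically (λex 550, λem 590 nm) after resazurin addition and further incubation.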
# Scedosporium prolificans = assay: Antifungal activity in vitro, resazurin growth inhibition: Scedosporium prolificans (IHEM21157)
# How it was run: as §2
# Sporothrix schenkii = assay: Antifungal activity in vitro, resazurin growth inhibition: Sporothrix schenkii (B62482)
# How it was run: as §2
# Aspergillus fumigatus = assay: Antifungal activity in vitro, resazurin growth inhibition: Aspergillus fumigatus (B42928)
# How it was run: as §2
# Candida parapsilosis = assay: Antifungal activity in vitro, resazurin growth inhibition: Candida parapsilosis (B66126)
# How it was run: as §2
# Cryptococcus neoformans = assay: Antifungal activity in vitro, resazurin growth inhibition: Cryptococcus neoformans (B66663)
# How it was run: as §2
# Rhizopus oryzae = assay: Antifungal activity in vitro, resazurin growth inhibition: Rhizopus oryzae (IHEM5223)
# Experimental: (§3) The standard susceptibility screen is performed in 96-well plates (U-bottom, Greiner Bio-One). Serial dilutions (2-fold or 4-fold) of 20 mM compound stock solutions are made in 100% DMSO, followed by an intermediate dilution step in water. These serial dilutions (10 μl) are then spotted onto test-plates that can be stored in the dark at 4° C. for a maximum period of 2 weeks. An adequate broad dose-range is included with 64 μM as the highest in-test concentration. The culture medium RPMI-1640 is supplemented with L-glutamine, 2% glucose and buffered with 3-(N-morpholino)-propanesulfonic acid (MOPS) at pH 7.0±0.1.
# (§4) The different fungal species/isolates (Table 3a) are cryopreserved and 1/1000 diluted in medium just prior to use. A standard inoculum of 200 μl containing 10^3 colony-forming unit (cfu) is then added to each well. A positive control (100% growth=fungal culture without antifungal) and a negative control (0% growth ═RPMI-MOPS medium) are included on each plate. Optimal incubation time and temperature are dependent on the fungal species and vary from 24 h for yeasts (37° C.) to one week or more for dermatophytes (27° C.). Inhibition of fungal growth is measured after adding 10 μl of 0.005% (w/v) resazurin (Sigma Aldrich) to each well, based on the principle that living cells convert the non-fluorescent blue resazurin into the pink and fluorescent resorufin, allowing fluorimetric reading (λex 550 nm and λem 590 nm) after an additional incubation period (‘resa’ time mentioned in Table 3a).
# Rhizomucor miehei = assay: Antifungal activity in vitro, resazurin growth inhibition: Rhizomucor miehei (IHEM13391)
# Experimental: as §3, §4
"Inf. B: Microsporum canis B68128, pIC50 (Microsporum canis)","Inf. G: Trichophyton mentagrophytes B70554, pIC50 [1]","Inf. C: Trichophyton rubrum B68183, pIC50 (Trichophyton rubrum)","Inf. H: Scedosporium apiospermum IHEM3817, pIC50 (Scedosporium apiospermum)","Inf. I: Scedosporium prolificans IHEM21157, pIC50 (Scedosporium prolificans)","Inf. A: Sporothrix schenkii B62482, pIC50 (Sporothrix schenkii)","Inf. E: Aspergillus fumigatus B42928, pIC50 (Aspergillus fumigatus)","Inf. D: Candida parapsilosis B66126, pIC50 (Candida parapsilosis)","Inf. F: Cryptococcus neoformans B66663, pIC50 (Cryptococcus neoformans)","Inf. J: Rhizopus oryzae IHEM5223, pIC50 (Rhizopus oryzae)","Inf. K: Rhizomucor miehei IHEM13391, pIC50 (Rhizomucor miehei)",SMILES
5.69,5.31,6.09,5.77,6.77,4.41,5.76,<4.19,5.74,<4.19,4.53,Cn1nnc2ccc(C3=NCc4c(Cl)cc(Cl)cc4-n4cccc43)cc21 [Compound 111]
7.02,7.28,7.47,<4.19,5.98,5.70,6.82,4.25,5.70,<4.19,4.88,c1ccc2c(c1)CN=C(c1cc3ccccc3o1)c1cccn1-2 [Compound 115]
7.39,6.83,7.52,6.22,6.46,5.84,6.26,4.70,5.65,<4.19,4.81,Cc1cccc2c1CN=C(c1cc3ccccc3o1)c1cccn1-2 [Compound 116]
6.52,6.43,7.07,4.80,5.97,5.74,5.98,<4.19,5.77,<4.19,4.80,Cc1cccc2c1-n1cccc1C(c1cc3ccccc3o1)=NC2 [Compound 117]
6.54,6.62,6.87,<4.19,6.17,6.00,6.30,5.61,6.40,<4.19,<4.19,Clc1ccc2c(c1)-n1cccc1C(c1cc3ccccc3o1)=NC2 [Compound 119]
6.16,5.81,6.31,4.19,5.52,4.86,5.99,<4.19,5.52,<4.19,<4.19,Clc1cc(Cl)c2c(c1)-n1cccc1C(c1cc3ccccc3o1)=NC2 [Compound 120]
6.96,6.86,6.82,5.97,6.15,6.11,5.52,<4.19,<4.19,5.77,5.58,Clc1ccc2oc(C3=NCc4c(Cl)cccc4-n4cccc43)cc2c1 [Compound 121]
6.90,5.55,6.86,<4.19,4.62,5.42,5.38,<4.19,4.69,<4.19,<4.19,Cc1cccc2c1CN=C(c1cc3cc(Cl)ccc3o1)c1cccn1-2 [Compound 122]
6.75,6.23,6.96,6.02,6.44,5.04,6.25,<4.19,4.98,<4.19,5.14,Fc1ccc2oc(C3=NCc4c(Cl)cccc4-n4cccc43)cc2c1 [Compound 123]
5.63,5.75,6.22,<4.19,5.90,5.10,6.25,<4.19,6.32,5.08,<4.19,Fc1ccc2oc(C3=NCc4ccc(Cl)cc4-n4cccc43)cc2c1 [Compound 124]
5.85,5.55,5.72,5.31,6.05,4.91,5.70,<4.19,5.69,<4.19,<4.19,Fc1ccc2oc(C3=NCc4c(Cl)cc(Cl)cc4-n4cccc43)cc2c1 [Compound 125]
6.33,6.34,6.87,5.45,6.64,<4.19,6.29,<4.19,5.18,<4.19,<4.19,Clc1cccc2c1CN=C(c1cc3cccc(Cl)c3o1)c1cccn1-2 [Compound 126]
6.44,6.40,6.94,4.80,6.64,<4.19,6.31,<4.19,5.22,<4.19,<4.19,Fc1cccc2cc(C3=NCc4c(Cl)cccc4-n4cccc43)oc12 [Compound 127]
6.02,6.30,6.87,<4.19,7.10,<4.19,5.99,<4.19,4.69,<4.19,<4.19,Fc1cc(F)c2oc(C3=NCc4c(Cl)cccc4-n4cccc43)cc2c1 [Compound 128]
